# Test results taken from patent US7556928B2, “Method of screening a population of cells” (One Cell Systems, Inc., priority 2001, dated 2009).
# Assays:
# CRL-8018 hybridoma cells [1] = assay: In-vitro induced IgG isotype switching by sequential sublining and mIgG ELISA; type: cell-based, mouse; details: retinoic acid 100 nM
# Protocol: Induction of Class-Switching Using CRL-8018 cell line, we investigated and evaluated methods of increasing the number class-switching events in-vitro. Cells were plated in 75 cm^2 flasks or in 12-well plates at 1×10^4/ml and incubated for 7 days in complete growth medium supplemented with:
# Determination of In-vitro Induced Switching Rate Using Sequential Sublining CRL-8018 cells were resuspended in growth medium supplemented with mitogen(s)/growth factors as described above and plated out in ten 96-well plates at a density of 1,000 cells/well. Cells were cultured at 37° C., 5% CO2 in a humid incubator for 5 days. Cell culture supernates were collected and an isotype-specific ELISA performed. Briefly, 96-well flexible assay plates, previously coated with 10μg/plate of purified goat anti-mouse IgG (Jackson Immunochemicals) in 20 mM NaHCO3 (Sigma-Aldrich), 50 μl/well, were incubated overnight at 4° C. and then washed 3 times in Dulbecco's phosphate buffered saline without calcium and magnesium/0.2% Tween 20 (DPBS-/Tween) (Sigma-Aldrich). Non-specific protein binding sites were blocked using PBS+1% BSA, 200 μl/well for 2 hr at room temperature (RT).
# 100 μl of each of the culture supemates were harvested and incubated in the anti-IgG coated plates for 2 hr at RT. The assay plates were washed three times in DPBS-/Tween, and 50 μl of HRP conjugated goat anti-mouse IgG (Jackson Immunochemicals) diluted 1:100 in PBS/Tween were applied to each well and incubated at RT for 1 hr. Plates were washed again and developed using 100 μl of TMB substrate solution (Sigma-Aldrich). The reaction was halted with 0.5M H2SO4 (Sigma-Aldrich) and plates were read at […] on an ELx800 ELISA plate reader (Bio-TEK Instruments, Inc.). Five rounds of the above procedure were performed to determine the switching rate.
# 11. Detection of In-vitro Induced IgG Isotype Switching Rate Among CRL-8018 Hybridoma Cells Using Sequennal Sublining Experiments were performed with CRL-8018 hybridoma cell line as described in Materials and Methods. […] Sequental sublining was performed as described in Materials and Methods. 1×10^6 cells were resuspended in 200 ml of growth medium supplemented with 100 nM of retinoic acid (5×10^3/ml) and plated out in ten 96-well plates at a density of 1,000 cells/well (0.2 ml/well). After 5 days of incubation at 37° C. and 5% CO2, mIgG isotype specific ELISA was performed with cell culture supemates. Cells from two positive wells were plated out in 96-well plates at a density of 100 cells/well (25 plates). Five rounds of the above procedure were performed: 1,000 cells/well, 100 cells/well, 10 cells/well, and 1 cell/well. […] About two months, 110 plates and 10,560 supemates for mIgG isotype specific ELISA were required for the assay.
# CRL-8018 hybridoma cells [2] = assay: Microdrop isotype capture and isolation assay (FACS); type: cell-based, mouse; details: 100 nM
# Protocol: Determination of Spontaneous and In-vitro Stimulated Switching Rate Using the Microdrop Isotype Capture and Isolation Assay Due to the low rate of isotype switching, analysis of large cell populations is necessary. —We, therefore, used a modified microdrop encapsulation protocol to isolate spontaneous or in-vitro induced rare IgG isotype switch variants among IgM secreting hybridoma cells. If the IgG concentration in supernatants was <0.1 μg/ml, we initially encapsulated multiple cells, followed by single cell encapsulation. In all cases, if,after in-vitro induction, the concentration of secreted IgG in supernatants was >0.1 μg/ml, one round of single cell encapsulation was sufficient for discriminating and sorting a small sub-population of positive cells.
# Two aliquots of 500 μl melted CelBioGel-3™ were vortexed with 25 μl of 10% Pluronic F-68 solution (Sigma-Aldrich), equilibrated at 37° C. for 3 min and then each was mixed with at least 2×10^6 hybridoma cells in […] of growth medium. These mixtures were added to 15 ml prewarmed CelMix™, covered and shaken vigorously 10 times to form an emulsion. Then the vial was attached to CellSys100™ Microdrop Maker (One Cell Systems, Inc) and the emulsion was mixed at 1800 rpm for 1 min at RT, then 1800 rpm for 1 min at 0° C., and subsequently 1000 rpm for 6 min at 0° C. Microdrops were washed three times in DPBS to remove oil and then incubated in 7 ml DPBS containing streptavidin (Sigma-Aldrich) at a final concentration of 10 μg/ml for 10 min at RT.
# After incubating with streptavidin, microdrops were washed three times by resuspending in 15 ml DPBS- followed by centrifugation at 1500 rpm for 5 min and then incubated with 10 μg/ml of biotinylated goat anti-mouse IgG for 10 min. Microdrops were again washed three times in DPBS- (as above) and resuspended in 20 ml of prewarmed growth medium and incubated at 37° C. for 2 hr for antibody secretion by the encapsulated cells. After incubation, microdrops were pelleted by centrifugation at 1500 rpm for 5 min, resuspended in cold DPBS- and labelled with 10 μg/ml of FITC-conjugated goat anti-mouse IgG-specific antibody (Jackson Immunochemicals). microdrops were washed twice in HBSS, resuspended in 2 ml of growth medium and sorted using a Coulter EPICS Elite; gating was set to sort only highly positive microdrops, based on controls.
# To determine spontaneous and in-vitro induced switching rate using the microdrop isotype capture and isolation assay, CRL-8018 hybridoma cells were plated out in two 75 cm^2 flasks or two 12-well plates (2 ml/well) at a density of 1×10^4 cells/ml in complete growth medium alone or in the presence of stimulators as described above. Cells were cultured at 37° C., 5% CO2 in a humid incubator for 5 days. Cell culture supemates were harvested and IgM and/or IgG production was tested using IsoStip™ or an ELISA-based mouse Isotyping kit (Zymed, Inc.). All cells from 75 cm2 flasks and from wells positive for IgG production were pooled, resuspended in 100-200 μl of growth medium and encapsulated in microdrops. The first round of isotype capture and isolation enrichment with multiple occupied microdrops was then performed, as described above. After sorted cells were propagated in culture for 5 days, the second round of the assay was performed usingmicrodrops occupied by single cells. After isolation by FACS, IgG secretors were plated out in 96-well plates, 1 cell/well. The number of recovered clones was estimated using supernatant ELISA after incubating plates at 37° C. in 5% C02 for 14 days.
# Fluorescence Activated Cell Sorting Cell sorting was performed using an EPICS Elite™ Coulter Corp. with a 100 μm flow nozzle. FITC-labelled detection regents were excited by the 488 nm spectral line of an argon laser. Green (FITC) fluorescence was collected using a 525 nm, long pass band filter. For statistical analysis, EPICS Elite 4.02 software was used. […]
# [3] = after first round with 25 × 10^6 cells
# [4] = second round, highest-fluorescence sub-population
compound,measurement,setting,value
CC1=C(/C=C/C(C)=C/C=C/C(C)=C/C(=O)O)C(C)(C)CCC1 [retinoic acid],rate of isotype switching,CRL-8018 hybridoma cells [1],~0.0006%
same,% positive wells,"CRL-8018 hybridoma cells [1]; 1 cell/well, of 2400 wells",91.2%
same,% positive wells,"CRL-8018 hybridoma cells [1]; 10 cells/well, of 2400 wells",23.5%
same,% positive wells,"CRL-8018 hybridoma cells [1]; 100 cells/well, of 2400 wells",12.4%
same,% positive wells,"CRL-8018 hybridoma cells [1]; 1,000 cells/well, of 960 wells",0.6%
same,mIgG positive wells,CRL-8018 hybridoma cells [1]; plating density 1 cell/well,2188
same,mIgG positive wells,CRL-8018 hybridoma cells [1]; plating density 10 cells/well,564
same,mIgG positive wells,CRL-8018 hybridoma cells [1]; plating density 100 cells/well,298
same,mIgG positive wells,"CRL-8018 hybridoma cells [1]; plating density 1,000 cells/well",6
same,"First round of FACS, FITC MFI","CRL-8018 hybridoma cells [2]; 2 × 10^6 cells, single cell encapsulation",320.65
same,"First round of FACS, % positive events detected","CRL-8018 hybridoma cells [2]; 2 × 10^6 cells, single cell encapsulation, 1 cell per GMD",0.15%
same,"First round of FACS, FITC MFI","CRL-8018 hybridoma cells [2]; 25 × 10^6 cells, multiple cell encapsulation",17.93
same,"First round of FACS, % positive events detected","CRL-8018 hybridoma cells [2]; 25 × 10^6 cells, multiple cell encapsulation, 2.5 cells per GMD",0.09%
same,"Sequential second round of FACS of single occupied GMDs, % positive events detected",CRL-8018 hybridoma cells [2]; [3],36.4%
same,"Sequential second round of FACS of single occupied GMDs, FITC MFI",CRL-8018 hybridoma cells [2]; [3],11.3
same,Sorted GMDs % pos,CRL-8018 hybridoma cells [2]; [4],2.9%
same,Sorted GMDs MFI,CRL-8018 hybridoma cells [2]; [4],75.2
